Where two headings read alike, the source gives them in different places.

For this test, the target named is T1, GLP-1 Receptor (GLP1R) (Homo sapiens, UniProt P43220).
T1 construct: host or cells: HEK293/GLP1R/CRE-LUC
The test is described as follows: GLP-1R agonist cAMP stimulation assay (Method 3). Type of test: cell-based. The conditions noted are these: HEK293/GLP1R/CRE-LUC cells (HDB), Method 3, 30 min incubation. The procedure, abridged:
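HEK293 CRE-Luc cells stably expressing GLP-1R (1000 cells/well) were exposed to ½-log serially diluted compound in DPBS with 0.5 mM IBMX and 0.1% BSA for 30 min at 37 °C. cAMP was quantified by HTRF (cAMP-d2/anti-cAMP cryptate), 1 h at room temperature, read at 665/615 nm.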

The mark [1] stands for this setting: read-out: GLP1R cAMP Stimulation DR: EC50 (nM) [Species: Human, Assay Cell Line: HDB].
The mark [2] stands for this setting: read-out: GLP1R cAMP Stimulation DR: pEC50 (M) [Species: Human, Assay Cell Line: HDB] (converted).

T1 sequence (P43220 24-463): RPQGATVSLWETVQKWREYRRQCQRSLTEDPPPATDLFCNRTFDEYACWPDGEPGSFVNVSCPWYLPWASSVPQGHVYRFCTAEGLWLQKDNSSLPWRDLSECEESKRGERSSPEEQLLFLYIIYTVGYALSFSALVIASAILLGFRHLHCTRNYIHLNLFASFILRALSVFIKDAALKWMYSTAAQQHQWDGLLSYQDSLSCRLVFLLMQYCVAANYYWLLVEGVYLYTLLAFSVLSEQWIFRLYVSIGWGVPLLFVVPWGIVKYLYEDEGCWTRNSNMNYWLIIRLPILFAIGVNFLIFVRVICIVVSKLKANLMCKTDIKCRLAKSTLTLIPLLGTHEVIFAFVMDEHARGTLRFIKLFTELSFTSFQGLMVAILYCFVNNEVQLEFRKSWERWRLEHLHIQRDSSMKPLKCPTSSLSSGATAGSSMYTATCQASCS

Turning to `Cc1cc(-n2nc3c(c2-n2ccn(-c4ccc(P(C)(C)=O)c(F)c4)c2=O)[C@H](C)N(C(=O)c2cc4cc(C5CCOCC5)ccc4n2[C@@]2(c4noc(=O)[nH]4)C[C@@H]2C)CC3)cc(C)c1F` [Compound 108a, 3-((1S,2S)-1-(2-((S)-3-(3-(4-(dimethylphosphoryl)-3-fluorophenyl)-2-oxo-2,3-dihydro-1H-imidazol-1-yl)-2-(4-fluoro-3,5-dimethylphenyl)-4-methyl-4,5,6,7-tetrahydro-2H-pyrazolo[4,3-c]pyridine-5-carbonyl)-5-(tetrahydro-2H-pyran-4-yl)-1H-indol-1-yl)-2-methylcyclopropyl)-1,2,4-oxadiazol-5(4H)-one], the EC50 under setting [1] was in the range of 0.2 to 0.5 nM and the EC50 under setting [2] was 0.1 to 1 nM.

Regarding `CNc1cc(-n2ccn(-c3c4c(nn3-c3cc(C)c(F)c(C)c3)CCN(C(=O)c3cc5cc(C6CCOCC6)ccc5n3[C@@]3(c5noc(=O)[nH]5)C[C@@H]3C)[C@H]4C)c2=O)ccc1P(=O)(C(C)C)C(C)C` [Compound 141a, 3-((1S,2S)-1-(2-((S)-3-(3-(4-(diisopropylphosphoryl)-3-(methylamino)phenyl)-2-oxo-2,3-dihydro-1H-imidazol-1-yl)-2-(4-fluoro-3,5-dimethylphenyl)-4-methyl-4,5,6,7-tetrahydro-2H-pyrazolo[4,3-c]pyridine-5-carbonyl)-5-(tetrahydro-2H-pyran-4-yl)-1H-indol-1-yl)-2-methylcyclopropyl)-1,2,4-oxadiazol-5(4H)-one], the EC50 by setting is: under setting [1], less than 0.1 nM; under setting [2], not above 0.1 nM.

`CCP(=O)(CC)c1c(C)cc(-n2ccn(-c3c4c(nn3-c3cc(C)c(F)c(C)c3)CCN(C(=O)c3cc5cc(C6CCOCC6)ccc5n3[C@@]3(c5noc(=O)[nH]5)C[C@@H]3C)[C@H]4C)c2=O)cc1NC` [Compound 140a, 3-((1S,2S)-1-(2-((S)-3-(3-(4-(diethylphosphoryl)-3-methyl-5-(methylamino)phenyl)-2-oxo-2,3-dihydro-1H-imidazol-1-yl)-2-(4-fluoro-3,5-dimethylphenyl)-4-methyl-4,5,6,7-tetrahydro-2H-pyrazolo[4,3-c]pyridine-5-carbonyl)-5-(tetrahydro-2H-pyran-4-yl)-1H-indol-1-yl)-2-methylcyclopropyl)-1,2,4-oxadiazol-5(4H)-one]: the EC50 runs as follows: under setting [1], 0.5 to 5 nM; under setting [2], 0.1 to 1 nM.

Regarding `CCP(=O)(CC)c1ccc(-n2ccn(-c3c4c(nn3-c3cc(C)c(F)c(C)c3)CCN(C(=O)c3cc5cc(C6CCOCC6)ccc5n3[C@@]3(c5noc(=O)[nH]5)C[C@@H]3C)[C@H]4C)c2=O)cc1NS(C)(=O)=O` [Compound 116a], the EC50 by setting is: under setting [1], 0.2 to 0.5 nM; under setting [2], 0.1 to 1 nM.

For `Cc1cc(-n2nc3c(c2-n2ccn(-c4cccc(P(C)(C)=O)c4O)c2=O)[C@H](C)N(C(=O)c2cc4cc(C5CCOCC5)ccc4n2[C@@]2(c4noc(=O)[nH]4)C[C@@H]2C)CC3)cc(C)c1F` [Compound 107a, 3-((1S,2S)-1-(2-((S)-3-(3-(3-(dimethylphosphoryl)-2-hydroxyphenyl)-2-oxo-2,3-dihydro-1H-imidazol-1-yl)-2-(4-fluoro-3,5-dimethylphenyl)-4-methyl-4,5,6,7-tetrahydro-2H-pyrazolo[4,3-c]pyridine-5-carbonyl)-5-(tetrahydro-2H-pyran-4-yl)-1H-indol-1-yl)-2-methylcyclopropyl)-1,2,4-oxadiazol-5(4H)-one], the EC50 is, setting by setting: under setting [1], 0.2 to 0.5 nM; under setting [2], 0.1 to 1 nM.

Regarding `Cc1cc(-n2nc3c(c2-n2ccn(-c4ccc(P(C)(C)=O)c(N5CCOCC5)c4)c2=O)[C@H](C)N(C(=O)c2cc4cc(C5CCOCC5)ccc4n2[C@@]2(c4noc(=O)[nH]4)C[C@@H]2C)CC3)cc(C)c1F` [Compound 125a, 3-((1S,2S)-1-(2-((S)-3-(3-(4-(dimethylphosphoryl)-3-morpholinophenyl)-2-oxo-2,3-dihydro-1H-imidazol-1-yl)-2-(4-fluoro-3,5-dimethylphenyl)-4-methyl-4,5,6,7-tetrahydro-2H-pyrazolo[4,3-c]pyridine-5-carbonyl)-5-(tetrahydro-2H-pyran-4-yl)-1H-indol-1-yl)-2-methylcyclopropyl)-1,2,4-oxadiazol-5(4H)-one], the EC50 is 0.2 to 0.5 nM under setting [1] and 0.1 to 1 nM under setting [2].

Regarding `CCP(=O)(CC)c1c(F)cc(-n2ccn(-c3c4c(nn3-c3cc(C)c(F)c(C)c3)CCN(C(=O)c3cc5cc(C6CCOCC6)ccc5n3[C@@]3(c5noc(=O)[nH]5)C[C@@H]3C)[C@H]4C)c2=O)cc1NC` [Compound 143a, 3-((1S,2S)-1-(2-((S)-3-(3-(4-(diethylphosphoryl)-3-fluoro-5-(methylamino)phenyl)-2-oxo-2,3-dihydro-1H-imidazol-1-yl)-2-(4-fluoro-3,5-dimethylphenyl)-4-methyl-4,5,6,7-tetrahydro-2H-pyrazolo[4,3-c]pyridine-5-carbonyl)-5-(tetrahydro-2H-pyran-4-yl)-1H-indol-1-yl)-2-methylcyclopropyl)-1,2,4-oxadiazol-5(4H)-one], the EC50 is 0.1 to 0.2 nM under setting [1] and 0.1 to 1 nM under setting [2].

For `CNc1cc(-n2ccn(-c3c4c(nn3-c3cc(C)c(F)c(C)c3)CCN(C(=O)c3cc5cc(C6CCOCC6)ccc5n3C3(c5noc(=O)[nH]5)CC3)[C@H]4C)c2=O)ccc1P(=O)(C1CC1)C1CC1` [Compound 148a, (S)-3-(1-(2-(3-(3-(4-(dicyclopropylphosphoryl)-3-(methylamino)phenyl)-2-oxo-2,3-dihydro-1H-imidazol-1-yl)-2-(4-fluoro-3,5-dimethylphenyl)-4-methyl-4,5,6,7-tetrahydro-2H-pyrazolo[4,3-c]pyridine-5-carbonyl)-5-(tetrahydro-2H-pyran-4-yl)-1H-indol-1-yl)cyclopropyl)-1,2,4-oxadiazol-5(4H)-one], the EC50 is less than 0.1 nM under setting [1] and not above 0.1 nM under setting [2].

Regarding `Cc1cc(-n2nc3c(c2-n2ccn(-c4cccc(P(C)(C)=O)c4)c2=O)[C@H](C)N(C(=O)c2cc4cc(C5CCOCC5)ccc4n2[C@@]2(c4noc(=O)[nH]4)C[C@@H]2C)CC3)cc(C)c1F` [Compound 109a, 3-((1S,2S)-1-(2-((S)-3-(3-(3-(dimethylphosphoryl)phenyl)-2-oxo-2,3-dihydro-1H-imidazol-1-yl)-2-(4-fluoro-3,5-dimethylphenyl)-4-methyl-4,5,6,7-tetrahydro-2H-pyrazolo[4,3-c]pyridine-5-carbonyl)-5-(tetrahydro-2H-pyran-4-yl)-1H-indol-1-yl)-2-methylcyclopropyl)-1,2,4-oxadiazol-5(4H)-one], the EC50 reads like this: under setting [1], 0.1 to 0.2 nM; under setting [2], 0.1 to 1 nM.

For `Cc1cc(-n2nc3c(c2-n2ccn(-c4ccc(P(C)(C)=O)c(OC(F)(F)F)c4)c2=O)[C@H](C)N(C(=O)c2cc4cc(C5CCOCC5)ccc4n2[C@@]2(c4noc(=O)[nH]4)C[C@@H]2C)CC3)cc(C)c1F` [Compound 123a, 3-((1S,2S)-1-(2-((S)-3-(3-(4-(dimethylphosphoryl)-3-(trifluoromethoxy)phenyl)-2-oxo-2,3-dihydro-1H-imidazol-1-yl)-2-(4-fluoro-3,5-dimethylphenyl)-4-methyl-4,5,6,7-tetrahydro-2H-pyrazolo[4,3-c]pyridine-5-carbonyl)-5-(tetrahydro-2H-pyran-4-yl)-1H-indol-1-yl)-2-methylcyclopropyl)-1,2,4-oxadiazol-5(4H)-one], the EC50 is 0.2 to 0.5 nM under setting [1] and 0.1 to 1 nM under setting [2].

With `Cc1cc(-n2nc3c(c2-n2ccn(-c4cc(P(C)(C)=O)c5c(cnn5C)c4)c2=O)[C@H](C)N(C(=O)c2cc4cc(C5CCOCC5)ccc4n2[C@@]2(c4noc(=O)[nH]4)C[C@@H]2C)CC3)cc(C)c1F` [Compound 112a, 3-((1S,2S)-1-(2-((S)-3-(3-(7-(dimethylphosphoryl)-1-methyl-1H-indazol-5-yl)-2-oxo-2,3-dihydro-1H-imidazol-1-yl)-2-(4-fluoro-3,5-dimethylphenyl)-4-methyl-4,5,6,7-tetrahydro-2H-pyrazolo[4,3-c]pyridine-5-carbonyl)-5-(tetrahydro-2H-pyran-4-yl)-1H-indol-1-yl)-2-methylcyclopropyl)-1,2,4-oxadiazol-5(4H)-one], the EC50 is 0.5 to 5 nM under setting [1] and 0.1 to 1 nM under setting [2].

The values are drawn from patent US20240366639A1, “HETEROCYCLIC GLP-1 AGONISTS” (GASHERBRUM BIO, INC., priority 2021, published 2024).
